From patent publication US20220313780A1, “METHODS AND COMPOSITIONS FOR TREATING INFLAMMATORY CONDITIONS” (THE SCRIPPS RESEARCH INSTITUTE, priority 2019, published 2022)
“Also recorded” adds a separate entry of the source.

System: caspase 1
Experiment: Caspase 1 activity assay in PMA-differentiated THP1 cells treated with LPS and ATP
Format: cell-based, human
Conditions: for caspase 1 activity: peptide 50 μM for 60 min before LPS (1 μg/mL) and ATP (5 mM), THP1 cells
Method: THP1-null (THP1) cells were plated at a final concentration of 1×10^6/mL in 96 well plates and incubated with PMA (0.5 μM) for 3 hours 37° C. in supplemented RPMI. Media was subsequently changed every 24 hours for 3 days. Various subsets of wells were selected and cells were treated for 60 minutes at 37° C. in serum-free RPMI with: (A) APC (4 μg/mL), TR47 (50 μM-2 nM), scrTR47 (50 μM), SFLLRN (50 μM), TFLLRN (50 μM); (B) P3R (50 μM-500 nM), P3K (50 μM); (C) APC (4 or 1 μg/mL), TR47 (8 nM), P3R (500 nM) or TR47+P3R (8 nM and 500 nM, respectively); (D) TR47 (0-128 nM) (●)±P3R (500 nM) (□); (E) P3R (0-500 nM) (●)±TR47 (1 nM) (□). Following DPBS wash, cells were incubated with LPS (1 μg/mL) for 3 hours at 37° C. in serum-free RPMI. After a DPBS wash, cells were incubated with ATP (5 mM) in the presence or absence of 10 μM YVAD (caspase 1 inhibitor) or 2.5 μM ZVAD (pan-caspase inhibitor) for 45 minutes at 37° C., prior to performing the caspase 1 activity assay following manufacturer's directions measuring luminescence (relative luminescent units, RLU). (D & E) Experimental caspase 1 activity was normalized to YVAD (caspase 1 inhibitor) luminescence units. (A-E) Data points represent mean±S.D. of at least 3 independent experiments. *P<0.05 (vs. LPS+ATP); #P<0.05 (vs. LPS+ATP & APC, TR47 or P3R); **P<0.005 (vs. LPS+ATP & TR47+500 nM P3R); n.s. not significant.
THP1 cells were plated at a final concentration of 1×10^6/mL in 96 well plates and incubated with PMA (0.5 μM) for 3 hours 37° C. in supplemented RPMI. Media was subsequently changed every 24 hours for 3 days. Selected wells were treated with APC (4 μg/mL), (A) 50 μM or (B) 2 μM of P3R, P3Rm, P3R 51-65, P3R 51-59, P3R 54-59 or P3R 59-65 for 1 hour, washed with DPBS, and incubated with LPS (1 μg/mL) for 3 hours at 37° C. in serum-free RPMI. Cells were washed with DPBS and incubated with ATP (5 mM) in the presence or absence of 10 μM YVAD (caspase 1 inhibitor; C1i) or 2.5 μM ZVAD (pan-caspase inhibitor; pCi) for 45 minutes at 37° C., prior to performing the caspase 1 activity assay following manufacturer's directions measuring luminescence (relative luminescent units, RLU). (C) Diagram showing the PAR3 sequence, peptide sequences and relative (anti-inflammatory) activity. These include sequences of P3R (SEQ ID NO:4), P3Rm (SEQ ID NO:8), P3R 51-65 (SEQ ID NO:9), P3R 51-59 (SEQ ID NO:10), P3R 54-59 (SEQ ID NO:54) and P3R 59-65 (SEQ ID NO:55).
THP1 cells were plated at a final concentration of 1×10^6/mL in 96 well plates and incubated with PMA (0.5 μM) for 3 hours 37° C. in supplemented RPMI. Media was subsequently changed every 24 hours for 3 days. Selected wells were treated with APC (4 μg/mL), TR47, in (A) 9-mer (TR47 9-mer; NPNDKYEPF (SEQ ID NO:36)) or Ac-TR47 (Acylated TR47) at either 50 μM or 10 nM or (B) 50 μM of 16-mer-TR47, 8-mer-TR47, 6-mer-TR47, TR47 N−1, TR47 N−2, TR47 N−5, TR47AQ, TR47AD, TR47AA or TR48-54 for 1 hour, washed with DPBS, and incubated with LPS (1 μg/mL) for 3 hours at 37° C. in serum-free RPMI. Cells were washed with DPBS and incubated with ATP (5 mM) in the presence or absence of 10 μM YVAD (caspase 1 inhibitor; C1i) or 2.5 μM ZVAD (pan-caspase inhibitor; pCi) for 45 minutes at 37° C., prior to performing the caspase 1 activity assay following manufacturer's directions measuring luminescence (relative luminescent units, RLU). #P<0.001 (vs. LPS+ATP), **P<0.005 (vs. LPS+ATP), * (P<0.05 vs. LPS+ATP). (C) Diagram showing the PAR1 sequence, peptide sequences and relative (anti-inflammatory) activity. These include sequences of TR47 (SEQ ID NO:7), Ac-TR47 (SEQ ID NO:56), 16-mer-TR47 (SEQ ID NO:43), 9-mer-TR47 (SEQ ID NO:36), 8-mer-TR47 (SEQ ID NO:35), 6-mer-TR47 (SEQ ID NO:33), TR47 N−1 (SEQ ID NO:47), TR47 N−2 (SEQ ID NO:51), TR47 N−5 (SEQ ID NO:48), TR47AQ (SEQ ID NO:49), TR47AD (SEQ ID NO:52), TR47AA (SEQ ID NO:50) and TR48-54 (SEQ ID NO:53). […]

“GAPPNSFEEFPFSALEGWTGATIT [P3R, PAR3-derived 24-mer peptide]” was tested, and the “normalized caspase 1 activity” value (P3R at ≤500 nM with 1 nM TR47) was “a significant reduction in normalized caspase 1 activity was observed” and the “caspase 1 activity” value was “reduced caspase 1 activity; also recorded: a significant reduction in caspase 1 activity was observed”.
With “NPNDKYEPFWEDEEKNESGL [TR47, PAR1-derived 20 amino acid peptide]” the “caspase 1 activity normalized to caspase 1 inhibited conditions” value (TR47 at <10 nM in the presence of 500 nM P3R) was “a reduction in caspase 1 activity was observed” and the “caspase 1 activity” value was “similarly reduced caspase 1 activity”.
